According to patent publication US20110039893A1, “GSK-3BETA INHIBITOR” (Takeda Pharmaceutical Company Limited, priority 2006, published 2011):

Biological target: T1, recombinant GSK-3β enzyme (Homo sapiens, UniProt P49841)
T1 construct: FLAG (N); made in house; host or cells: Sf-21 insect cells, recombinant baculovirus (pFASTBAC1, BAC-TO-BAC)
Assay: GSK-3β inhibitory activity evaluation (Kinase Glo luminescence, recombinant enzyme)
Format: biochemical
Conditions: recombinant human GSK-3β 100 ng, glycogen synthase-derived substrate peptide, 2.5 μM ATP solution, 30 min room temperature
Procedure: Human GSK-3β gene was cloned by PCR using human brain cDNA (Clontech; trade name: QUICK-Clone cDNA) as a template and a primer set (GSK3β-U: 5′-[…] CTT-3′ (SEQ ID NO: 1) and GSK3β-L: 5′-[…]-3′ (SEQ ID NO: 2)) prepared by reference to the base sequence of GSK-3β gene registered under an accession No. NM_002093 in the GenBank.
PCR was performed according to the protocol attached to KOD plus DNA polymerase (TOYOBO CO., LTD.). The obtained PCR product was subjected to agarose gel (1%) electrophoresis, and DNA fragment (1.2 kb) containing GSK-3β gene was recovered from the gel, and digested with restriction enzymes EcoR I and Sal I. DNA after treatment with restriction enzymes was subjected to agarose gel (1%) electrophoresis, and the obtained DNA fragment was recovered, and ligated to plasmid pFASTBAC1 (Invitrogen) digested with restriction enzymes EcoR I and Sal I to give expression plasmid pFB-GSK3β. The base sequence of the inserted fragment was confirmed to match the object sequence. Using BAC-TO-BAC Baculovirus Expression System (Invitrogen), virus stock BAC-GSK3β of recombinant Baculovirus was prepared.
Sf-21 cells (Invitrogen) were inoculated to 150 ml Sf-900 II SEM medium (Invitrogen) containing 10% fetal bovine serum to 1×10^6 cells/ml and cultured at 27° C. for 24 hr. To the obtained culture medium was added the virus stock BAC-GSK3β of recombinant Baculovirus obtained above by 150 μl each, and the cells were further cultured for 60 hr. The culture medium was centrifuged (3000 rpm, 10 min) to separate the cells, and the cells were washed once with PBS. The cells were suspended in 10 ml of cell lysis buffer (25 mM HEPES (pH 7.5), 1% Triton X, 130 mM sodium chloride, 1 mM EDTA, 1 mM Dithiothreitol, 25 mM β-glycerophosphate, Protease inhibitor Complete (Boehringer), 1 mM sodium orthovanadate), treated 4 times in a homogenizer (POLYTRON) at 20000 rpm, 30 sec to disrupt the cells. The cell disrupt solution was centrifuged (40000 rpm, 45 min), and GSK-3β was purified from the obtained supernatant using Anti-FLAG M2 Affinity Gel (Sigma Ltd.).
To 37.5 μl of a reaction solution (25 mM HEPES (pH 7.5), 10 mM magnesium acetate, 1 mM DTT, 0.01% bovine serum albumin (Wako Pure Chemical Industries, Ltd.)) containing recombinant GSK-3β enzyme (100 ng) obtained above and substrate peptide ([…]pSEDEEE (SEQ ID NO: 3), pS is phosphorylated serine) (100 ng) derived from glycogen synthase was added a test compound (2.5 μl) dissolved in DMSO, and the mixture was incubated at room temperature for 5 min. To the obtained mixture was added ATP solution (2.5 μM ATP, 10 μl), and the mixture was reacted at room temperature for 30 min. After the reaction, the reaction was quenched by adding 50 μL of Kinase Glo Reagent (Promega) to the reaction solution. After reaction at room temperature for 10 min, the luminescence amount was measured using an ARVO multilabel counter (PerkinElmer Life Sciences). The concentration of the test compound necessary for inhibiting the luminescence amount by 50% (IC50 value) was calculated by PRISM 3.0 (Graphpad software).

T1 sequence (P49841 whole entry): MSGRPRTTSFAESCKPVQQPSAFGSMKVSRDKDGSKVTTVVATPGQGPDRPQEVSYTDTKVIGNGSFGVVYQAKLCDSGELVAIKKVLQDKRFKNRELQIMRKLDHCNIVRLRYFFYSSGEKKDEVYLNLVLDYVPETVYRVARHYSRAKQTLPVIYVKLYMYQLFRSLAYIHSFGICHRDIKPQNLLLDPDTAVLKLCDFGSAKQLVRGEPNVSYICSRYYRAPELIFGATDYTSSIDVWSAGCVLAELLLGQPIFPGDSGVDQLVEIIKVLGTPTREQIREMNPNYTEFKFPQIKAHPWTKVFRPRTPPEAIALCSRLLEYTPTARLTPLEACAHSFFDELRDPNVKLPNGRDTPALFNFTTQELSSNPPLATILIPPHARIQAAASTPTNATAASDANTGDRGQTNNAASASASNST

| Structure (SMILES) | IC50 |
| --- | --- |
| COc1ccc(C2CC(=O)N(c3ccnc(NC(=O)NCc4ccccn4)c3)C2)cc1 (centres unmarked) [Example 21, N-(4-(4-(4-methoxyphenyl)-2-oxopyrrolidin-1-yl)pyridin-2-yl)-N′-(pyridin-2-ylmethyl)urea] | 0.12 µM |
| CC1(C)C(=O)N(c2ccnc(NC(=O)NCc3ccccn3)c2)c2cccnc21 [Example 59, N-(4-(3,3-dimethyl-2-oxo-2,3-dihydro-1H-pyrrolo[3,2-b]pyridin-1-yl)pyridin-2-yl)-N′-(pyridin-2-ylmethyl)urea] | < 0.1 µM |
| O=C(NCc1ccccn1)Nc1cc(N2CC(Cc3ccccc3)OC2=O)ccn1 (centres unmarked) [Example 43, N-(4-(5-benzyl-2-oxo-1,3-oxazolidin-3-yl)pyridin-2-yl)-N′-(pyridin-2-ylmethyl)urea] | < 0.1 µM |
| O=C(NCc1cccnc1)Nc1cc(N2CC(c3ccccc3)CC2=O)ccn1 (centres unmarked) [Example 7, N-(4-(2-oxo-4-phenylpyrrolidin-1-yl)pyridin-2-yl)-N′-(pyridin-3-ylmethyl)urea] | 0.19 µM |
| O=C(CCc1nc2ccccc2s1)Nc1cc(N2CC(c3ccccc3)OC2=O)ccn1 (centres unmarked) [Example 78, 3-(1,3-benzothiazol-2-yl)-N-(4-(2-oxo-5-phenyl-1,3-oxazolidin-3-yl)pyridin-2-yl)propanamide] | < 0.1 µM |
| Cc1ccc2oc(=O)n(-c3ccnc(NC(=O)NCc4ccccn4)c3)c2c1 [Example 66, N-(4-(5-methyl-2-oxo-1,3-benzoxazol-3(2H)-yl)pyridin-2-yl)-N′-(pyridin-2-ylmethyl) urea] | < 0.1 µM |
| O=C(NCc1ccccn1)Nc1cc(N2CC3(CCCCC3)CC2=O)ccn1 [Example 54, N-(4-(3-oxo-2-azaspiro[4.5]dec-2-yl)pyridin-2-yl)-N′-(pyridin-2-ylmethyl)urea] | < 0.1 µM |
| CC1(C)C(=O)N(c2ccnc(NC(=O)NCc3ccccn3)c2)c2ccccc21 [Example 58, N-(4-(3,3-dimethyl-2-oxo-2,3-dihydro-1H-indol-1-yl)pyridin-2-yl)-N′-((pyridin-2-yl)methyl)urea] | < 0.1 µM |
| O=C(NCc1ccccn1)Nc1cc(N2CC(CCc3ccccc3)CC2=O)ccn1 (centres unmarked) [Example 37, N-(4-(2-oxo-4-(2-phenylethyl)pyrrolidin-1-yl)pyridin-2-yl)-N′-(pyridin-2-ylmethyl)urea] | < 0.1 µM |
| Cc1ccc2c(c1)oc(=O)n2-c1ccnc(NC(=O)NCc2ccccn2)c1 [Example 65, 1-(4-(6-methyl-2-oxo-1,3-benzoxazol-3(2H)-yl)pyridin-2-yl)-3-(pyridin-2-ylmethyl)urea] | < 0.1 µM |
| O=C(CCc1ccccn1)Nc1cc(N2CC(c3ccccc3)CC2=O)ccn1 (centres unmarked) [Example 75, N-(4-(2-oxo-4-phenylpyrrolidin-1-yl)pyridin-2-yl)-3-(pyridin-2-yl)propanamide] | 0.22 µM |
| O=C(NCc1ccccn1)Nc1cc(-n2cc(-c3ccccc3)oc2=O)ccn1 [Example 47, N-(4-(2-oxo-5-phenyl-1,3-oxazol-3(2H)-yl)pyridin-2-yl)-N′-(pyridin-2-ylmethyl)urea] | < 0.1 µM |
| CC1CCN(c2ccnc(NC(=O)NCc3ccccn3)c2)C1=O (centres unmarked) [Example 51, N-(4-(3-methyl-2-oxopyrrolidin-1-yl)pyridin-2-yl)-N′-((pyridin-2-yl)methyl)urea] | < 0.1 µM |
| O=C(NCc1ccccn1)Nc1cc(N2CC(COc3ccccc3)OC2=O)ccn1 (centres unmarked) [Example 45, N-(4-(2-oxo-5-(phenoxymethyl)-1,3-oxazolidin-3-yl)pyridin-2-yl)-N′-(pyridin-2-ylmethyl)urea] | < 0.1 µM |
| O=C(NCc1ccccn1)Nc1cc(N2CC(c3ccccc3)CC2=O)ccn1 (centres unmarked) [Example 4, N-(4-(2-oxo-4-phenylpyrrolidin-1-yl)pyridin-2-yl)-N′-(pyridin-2-ylmethyl)urea] | < 0.1 µM |
| O=C(NCc1ccccn1)Nc1cc(N2CC(c3ccccc3)OC2=O)ccn1 (centres unmarked) [Example 42, N-(4-(2-oxo-5-phenyl-1,3-oxazolidin-3-yl)pyridin-2-yl)-N′-(pyridin-2-ylmethyl)urea] | < 0.1 µM |

| Structure (SMILES) | IC50 |
| --- | --- |
| O=C(NCc1ccccn1)Nc1cc(N2CC(c3cccc(C(F)(F)F)c3)CC2=O)ccn1 (centres unmarked) [Example 25, N-(4-(2-oxo-4-(3-(trifluoromethyl)phenyl)pyrrolidin-1-yl)pyridin-2-yl)-N′-(pyridin-2-ylmethyl)urea] | 0.1 µM |
| O=C(NCc1ccccn1)Nc1cc(-n2c(=O)oc3ccccc32)ccn1 [Example 64, N-(4-(2-oxo-1,3-benzoxazol-3(2H)-yl)pyridin-2-yl)-N′-(pyridin-2-ylmethyl)urea] | < 0.1 µM |
| O=C(CCc1cccnc1)Nc1cc(N2CC(c3ccccc3)OC2=O)ccn1 (centres unmarked) [Example 77, N-(4-(2-oxo-5-phenyl-1,3-oxazolidin-3-yl)pyridin-2-yl)-3-(pyridin-3-yl)propanamide] | 0.19 µM |
| O=C(NCc1ccccn1)Nc1cc(NC(=O)c2ccccc2)ccn1 [Example 69, N-(2-(((pyridin-2-ylmethyl)carbamoyl)amino)pyridin-4-yl)benzamide] | < 0.1 µM |
| O=C(NCc1ccccn1)Nc1cc(N2CC(c3cccc(F)c3)CC2=O)ccn1 (centres unmarked) [Example 29, N-(4-(4-(3-fluorophenyl)-2-oxopyrrolidin-1-yl)pyridin-2-yl)-N′-(pyridin-2-ylmethyl)urea] | 0.1 µM |
| O=C(NCc1ccccn1)Nc1cc(N2CC(c3cccs3)OC2=O)ccn1 (centres unmarked) [Example 48, N-(4-(2-oxo-5-(2-thienyl)-1,3-oxazolidin-3-yl)pyridin-2-yl)-N′-(pyridin-2-ylmethyl)urea] | < 0.1 µM |
| O=C(Cc1cccs1)Nc1cc(N2CC(c3ccccc3)OC2=O)ccn1 (centres unmarked) [Example 79, N-(4-(2-oxo-5-phenyl-1,3-oxazolidin-3-yl)pyridin-2-yl)-2-(2-thienyl)acetamide] | 0.23 µM |
| O=C(NCc1ccccn1)Nc1cc(N2CC(COCc3ccccc3)OC2=O)ccn1 (centres unmarked) [Example 46, N-(4-(5-((benzyloxy)methyl)-2-oxo-1,3-oxazolidin-3-yl)pyridin-2-yl)-N′-(pyridin-2-ylmethyl)urea] | < 0.1 µM |
| Cn1c(=O)n(-c2ccnc(NC(=O)NCc3ccccn3)c2)c2ccccc21 [Example 61, N-(4-(3-methyl-2-oxo-2,3-dihydro-1H-benzimidazol-1-yl)pyridin-2-yl)-N′-(pyridin-2-ylmethyl)urea] | < 0.1 µM |
| O=C(NCc1ccccn1)Nc1cc(N2CC(Cc3ccccc3)CC2=O)ccn1 (centres unmarked) [Example 34, N-(4-(4-benzyl-2-oxopyrrolidin-1-yl)pyridin-2-yl)-N′-((pyridin-2-yl)methyl)urea] | < 0.1 µM |
| CC1CCC(=O)N1c1ccnc(NC(=O)NCc2ccccn2)c1 (centres unmarked) [Example 53, N-(4-(2-methyl-5-oxopyrrolidin-1-yl)pyridin-2-yl)-N′-((pyridin-2-yl)methyl)urea] | 0.1 µM |
| O=C(NCc1ccc2c(c1)OCO2)Nc1cc(N2CC(c3ccccc3)CC2=O)ccn1 (centres unmarked) [Example 13, N-(1,3-benzodioxol-5-ylmethyl)-N′-(4-(2-oxo-4-phenylpyrrolidin-1-yl)pyridin-2-yl)urea] | 0.28 µM |
| O=C(CCc1ccccn1)Nc1cc(N2CC(c3ccccc3)OC2=O)ccn1 (centres unmarked) [Example 76, N-(4-(2-oxo-5-phenyl-1,3-oxazolidin-3-yl)pyridin-2-yl)-3-(pyridin-2-yl)propanamide] | 0.16 µM |
| O=C(NCc1ccccn1)Nc1cc(N2CC(c3ccccc3)CC2=O)ccn1 (single isomer, unassigned; (-)) [Example 5, (−)-N-(4-(2-oxo-4-phenylpyrrolidin-1-yl)pyridin-2-yl)-N′-(pyridin-2-ylmethyl)urea] | < 0.1 µM |
| CC1(c2ccccc2)CN(c2ccnc(NC(=O)NCc3ccccn3)c2)C(=O)O1 (centres unmarked) [Example 49, N-(4-(5-methyl-2-oxo-5-phenyl-1,3-oxazolidin-3-yl)pyridin-2-yl)-N′-(pyridin-2-ylmethyl)urea] | < 0.1 µM |
| O=C(NCc1ccccn1)Nc1cc(N2CC(CCc3ccccc3)OC2=O)ccn1 (centres unmarked) [Example 44, N-(4-(2-oxo-5-(2-phenylethyl)-1,3-oxazolidin-3-yl)pyridin-2-yl)-N′-(pyridin-2-ylmethyl)urea] | < 0.1 µM |
